Experiments:
[1] = Superoxide trapping: reaction of nitrone with potassium superoxide and crown ether in benzene; conditions: for trapping of superoxide radical anion: in vitro, yielding UV-VIS identifiable orange products; for colour change / coloured product upon reaction with potassium superoxide: potassium superoxide (3 or 6 equiv.)
Text: Thus, the amounts of potassium superoxide and crown ether were increased to 5 equivalents. Still no product was observed. The result could be due to the fact that not enough superoxide radical anion was present because of poor solubility of potassium superoxide. Therefore, 20 equivalents of potassium superoxide and crown ether were directly treated with nitrone 22. These conditions gave a product in very low yield which was impossible to identify. Finally, nitrone 22 was directly treated using 6 equivalents of potassium superoxide. […] The product was identified as aldehyde 67 by observing the aldehyde-proton signal and the up-field shifting of the ethyl signal of the azulene ring.
The detection of superoxide with azulenysilane mononitrone 23 was based on the previous method as described (vida supra). Six equivalents of potassium superoxide were used as before. As mentioned earlier, the previous reaction was monitored by observing an orange product on TLC. […] Based on the previous mechanism, it was expected to obtain the end product bis-aldehyde 72. However, ^1H NMR spectral information of the orange end product indicated the loss of the silyl group, and presence of only the mono-aldehyde. The low resolution mass spectrum detected a MH^+ of 448. Unfortunately, it was not possible to purify enough for the NMR characterization. […] It is believed that the superoxide spin adduct that formed was unstable and fragmented into another compound rather than the expected one. The loss of the silyl group could result after rearrangement via a nucleophilic attack on silicon by a second superoxide anion since an excess of superoxide anion was used and due to the high affinity of silicon towards oxygen.
The unidentified end product from superoxide radical anion with nitrone 23 led us to synthesize an analogue, the isoxazoline azulenylsilanenitrone 24, and test it for its possible utility in superoxide detection. Using the same method as described earlier, superoxide was solubilized in benzene by employing in acrown ether. The only difference in this case was the use of three equivalents of potassium superoxide instead of six equivalents. […] As in the previous case, aldehyde product 73 was expected to be formed. […] With HRMS and NMR spectral analyses, the orange product was identified as amide 74.
Guanylhydrazone nitrone 25 is a congener of nitrone 24. Incorporation of guanylhydrazone moiety may make it mitochondriotropic, and thereby render it useful to detect superoxide anion present in the mitochondria. […] The brownish orange end product was isolated and identified as amide 80 using low resolution mass spectrum (MH^+=654) which is analogous to the end product 74. In addition to amide 80, a trace of another orange product was also observed which is identified as amide 81 (MH^+=768) analogous to amide 79.
6 mg of nitrone 22 (0.0163 mmol) was mixed with 6.9 mg of potassium superoxide (0.097 mmol, 6 equiv.) and 8.6 mg of crown ether (0.032 mmol, 2 equiv.) and dissolved the mixture in 1 ml of benzene. The reaction was stirred for 3 hr at room temperature. The product was washed with 10 ml of saturated sodium chloride several times, dried over magnesium sulfate and concentrated. The mixture was purified by column chromatography using 5:5 hexane:ethylacetate to give 2.2 mg of crude 67 (43%). It was not possible to obtain 67 pure enough for definitive NMR characterization. […] When the same reaction was stirred for three days, another orange product was observed. […] Impossible to isolate this product in pure form, the structure was not identified.
20 mg of nitrone 24 was treated with 7.5 mg of potassium superoxide and 18.6 mg of crown ether in 1 ml of benzene. The reaction was stirred for 16 hr at room temperature. The mixture was then washed with 10 ml of saturated sodium chloride several times, dried and concentrated. […]

[2] = type: physicochemical
Experimental: Solutol HS 15 is a non-ionic solubilizer and emulsifying agent produced from 1 mole of 12-hydroxystearic acids and 15 moles of ethylene oxide. […] To prepare the concentration of 0.64 mg/ml of nitrone 25 in 3:7 solutol HS 15:1% saline solution, 1 ml of solutol HS 15 was heated until it turned into a clear liquid and cooled to room temperature. Meanwhile, 2.1 mg of nitrone 25 was crushed to a fine powder and dissolved in 1 ml of clear solutol HS 15. It was then diluted with 2.3 ml of 1% saline solution in water with frequent shaking and warming. It was then cool to room temperature to obtained green solution. The green solution was kept in a freezer, and found to be stable. The aqueous formulation of nitrone 25 with solutol HS 15 is believed to be amenable for mitochondrial superoxide detection and other biological studies.

[3] = in cyclohexane; cited from earlier work
[4] = Fluorescence and quantum yield of superoxide trapping product in ethanol; type: physicochemical; conditions: excitation wavelength 390 nm
Experimental: The UV-vis (ultra visible) absorption spectrum and fluorescence of chromotropic amide 74 was measured in ethanol. […] The fluorescence signal, indicated by red signal, was obtained by irradiating at the excitation wavelength 390 nm as shown in the spectrum. The wavelength dependence of the intensity of emitted light has been recorded at ˜490 nm (emission). The quantum yield of amide was measured at 2.7%. […] This, in addition to its chromotropic behavior, may bring an advantage over conventional cyclic nitrones which require ESR for superoxide detection.
All of the moisture sensitive reactions have been carried out using syringe septum rubber cap technique under N2 or Ar atmosphere or in a vial by flushing N2 or Ar gas into it. […] All of the reactions were monitored by TLC analysis (Whatman pre-coated silica gel F254 plates, 250 μm layer thickness), and visualization was achieved by 254 nm UV light. The crude reaction mixtures have been purified by column chromatography using 60 A (200-300 mess) on silica gel. ^1H and ^13C NMR spectra were recorded on Bruker AVANCE-400 spectrometer in CDCl3. Chemical shifts were measured in parts per million with residual solvent peak used as an internal standard. ^1H NMR spectra were run at 400 MHz and ^13C NMR spectra were recorder at […] with proton decoupled sequence. […] UV-vis spectrum was recorded using a Varian Cary 50 Bio spectrophotometer. […]

[5] = crown ether, benzene, room temperature

In the case of `CC(C)(C)N1OC(c2ccccc2)=C(C#N)C1c1c2cccccc-2c(/C=[N+](\[O-])C(C)(C)C)c1[Si](C)(C)C(C)(C)C` (stereo not shown) [nitrone 24, 2-tert-butyl-3-[2-(tert-butyldimethyl-silanyl)-3-nitrone-azulen-1-yl]-5-phenyl-2,3-dihydro-isoxazole-4-carbonitrile], the “trapping of superoxide radical anion” value [1] is reported as “trap superoxide radical anion efficiently” and the “colour change / coloured product upon reaction with potassium superoxide” value [1, 5] is reported as “completely turned into orange solution”.

For `CCc1c2cccccc-2c(/C=[N+](\[O-])C(C)(C)C)c1[Si](C)(C)C(C)(C)C` [nitrone 22, 2-terbutyldimethylsilyl-1ethyl-3-azulenylnitrone], the “trapping of superoxide radical anion” value [1] was “trap superoxide radical anion efficiently”, the reaction with superoxide ([1]; one to five equivalents of potassium superoxide and one equivalent of crown ether in benzene, room temperature) was “No reaction was observed” and the “colour change / coloured product upon reaction with potassium superoxide” value [1, 5] was “less polar orange product”.

For `CCc1c2cccccc-2c(C=O)c1O[Si](C)(C)C(C)(C)C` [aldehyde 67], the “stability of aldehyde end product” value ([1]; under the superoxide reaction conditions, decomposed as reaction proceeded) was “very unstable”.

For `[H]/N=C(\N)N/N=C/c1cccc(C#Cc2cccc(C3=C(C#N)C(c4c5cccccc-5c(/C=[N+](\[O-])C(C)(C)C)c4[Si](C)(C)C(C)(C)C)N(C(C)(C)C)O3)c2)c1` (stereo not shown) [nitrone 25, 2-tert-butyl-3-[2-(tert-butyldimethyl-silanyl)-3-nitrone-azulen-1-yl]-5-[3-(3-guanylhydrazone-phenylethynyl)-phenyl]-2,3-dihydro-isoxazole-4-carbonitrile], the “trapping of superoxide radical anion” value [1] was “trap superoxide efficiently”, the “trapping of superoxide radical anion” value ([1]; listed as 25) was “trap superoxide radical anion efficiently” and the concentration in solution [2] was 640 µg/mL. For the same compound, the “effect of solutol HS 15 on solubility in water” value [2] was “increase the solubility”, the stability of solution [2] was “stable” and the water solubility [2] was “poorly water soluble”.

For `Cc1c2cccccc-2c(C)c1[Si](C)(C)C(C)(C)C` [nitrone 40, 2-tert-butyldimethylsilyl-1,3-dimethylazulene], the “colour change / coloured product upon reaction with potassium superoxide” value [1, 5] was “turned into brownish orange”.

With `CC(C)(C)/[N+]([O-])=C/c1c2cccccc-2c(C=O)c1[Si](C)(C)C(C)(C)C` [nitrone 23, 2-tert-butyldimethylsilyl-3-formyl-azulene-1-nitrone] the “trapping of superoxide radical anion” value [1] was “trap superoxide radical anion efficiently”, the “colour change / coloured product upon reaction with potassium superoxide” value [1, 5] was “turned completely from green to orange” and the “time for reaction mixture to turn completely from green to orange” value ([1]; six equivalents of potassium superoxide, crown ether, benzene) was 90 min.

For `C(#Cc1c2ccccc2c(C#Cc2ccccc2)c2ccccc12)c1ccccc1` [9,10-bis(phenylethynyl)anthracene], the “quantum yield (QY) of fluorescence standard” value [3] is listed as 1.0.

`CC(C)(C)NC(=O)c1c2cccccc-2c2c(NC(C)(C)C)c(C(=O)c3ccccc3)c(=N)oc12` [amide 74] gave a fluorescence emission wavelength [4] of ~490 nm and a fluorescence quantum yield [4] of 2.7%.
